Reference: ChEMBL document CHEMBL5678811 (Invest New Drugs, 2014)
Calls of active or inactive are those of the source. No cut-off for these calls is given here.

What was measured:
MV4-11 [1] = assay: Cell cycle arrest in human MV4-11 cells assessed as accumulation of cells at G2/M-phase at […] measured after 24 hrs by propidium iodide staining based flow cytometry (reference value: 15.23%); format: functional; conditions: dose 0.625 µM
COLO 205 [2] = assay: In vivo inhibition of CDK4/CDK6 in human COLO 205 cells xenografted CD1 nu/nu mouse assessed as reduction in pHH3 expression at 12.5 to 50 mg/kg, po administered via gavage measured after 24 hrs by Western blot analysis; format: functional, organism-based; conditions: dose 12.5-50 mg/kg
MDA-MB-468 = assay: Cell cycle arrest in human MDA-MB-468 cells assessed as accumulation of cells at G2/M-phase at 2.5 uM measured after 24 hrs by propidium iodide staining based flow cytometry (reference value: 26.49%); format: functional
[3] = Toxicity in human COLO 205 cells xenografted CD1 nu/nu mouse assessed as body weight loss at 50 mg/kg, po administered daily via gavage for 56 days and measured twice per week during compound dosing; format: organism-based; conditions: in vivo, 1344 h, time 56 day
MCF-10A = assay: Cell cycle arrest in human MCF-10A cells assessed as accumulation of cells at G1 phase by measuring increase in 2N DNA content measured after 24 hrs by propidium iodide staining based laser-scanning fluorescence cytometry; format: toxicity
[4] = molecular target: Receptor-type tyrosine-protein kinase FLT3 (Homo sapiens) (UniProt P36888); conditions: Sf21, dose 200.0 nM
Description: Inhibition of recombinant human N-terminal GST-tagged FLT3 (564 to end residues) expressed in baculovirus infected Sf21 cells at 200 nM using Abltide as substrate relative to control

MDA-MB-231 [5] = assay: Cell cycle arrest in human MDA-MB-231 cells assessed as accumulation of cells at G1-phase at 2.5 uM measured after 24 hrs by propidium iodide staining based flow cytometry (reference value: 50.27%); format: functional
MDA-MB-231 [6] = assay: Cell cycle arrest in human MDA-MB-231 cells assessed as accumulation of cells at G1-phase at 0.16 uM measured after 24 hrs by propidium iodide staining based flow cytometry (reference value: 50.27%); format: functional
MDA-MB-231 [7] = assay: Cell cycle arrest in human MDA-MB-231 cells assessed as accumulation of cells at S-phase at 2.5 uM measured after 24 hrs by propidium iodide staining based flow cytometry (reference value: 38.27%); format: functional
COLO 205 [8] = conditions: Mus musculus, CD1, dose 50.0 mg/kg, route po
MV4-11 [9] = assay: Cell cycle arrest in human MV4-11 cells assessed as accumulation of cells at S-phase at 0.04 uM measured after 24 hrs by propidium iodide staining based flow cytometry (reference value: 23.35%); format: functional
COLO 205 [10] = conditions: Mus musculus, CD1, dose 25-50 mg/kg, route po
MV4-11 [11] = assay: Cell cycle arrest in human MV4-11 cells assessed as accumulation of cells at G1-phase at 2.5 uM measured after 24 hrs by propidium iodide staining based flow cytometry (reference value: 61.42%); format: functional
COLO 205 [12] = conditions: Homo sapiens, dose 50.0 mg/kg, route po, time > 56.0 day
COLO 205 [13] = conditions: Mus musculus, CD1, dose 100.0 mg/kg, route po, time 21.0 day
MV4-11 [14] = assay: Cell cycle arrest in human MV4-11 cells assessed as accumulation of cells at G1-phase at 0.04 uM measured after 24 hrs by propidium iodide staining based flow cytometry (reference value: 61.42%); format: functional
[15] = Toxicity in human COLO 205 cells xenografted CD1 nu/nu mouse assessed as change in jejunum histology at 50 mg/kg, po administered daily via gavage for 56 days and measured on day 41 to 69 by histopathological analysis; format: organism-based; conditions: in vivo, 1344 h, time 41-69 day
[16] = Toxicity in human COLO 205 cells xenografted CD1 nu/nu mouse assessed as body weight loss at 50 mg/kg, po administered daily via gavage for 2 cycles of 3 weeks on/1 week rest; format: organism-based; conditions: in vivo
COLO 205 [17] = conditions: Mus musculus, CD1, dose 50.0 mg/kg, route po; remark: listed apart in the source
MV4-11 [18] = assay: Cell cycle arrest in human MV4-11 cells assessed as accumulation of cells at G2/M-phase at 1.25 uM measured after 24 hrs by propidium iodide staining based flow cytometry (reference value: 15.23%); format: functional
COLO 205 [19] = conditions: Mus musculus, CD1, dose 50.0 mg/kg, route po, time lower 1.0 hrs, time upper […], TDE = time-dependent effect
[20] = Toxicity in human COLO 205 cells xenografted CD1 nu/nu mouse assessed as decrease in red cell mass at 50 mg/kg, po administered daily via gavage for 56 days and measured on day 41 to 69 by hematological analysis; format: organism-based; conditions: in vivo, 1344 h, time 41-69 day
MV4-11 [21] = assay: Cell cycle arrest in human MV4-11 cells assessed as accumulation of cells at S-phase at 0.08 uM measured after 24 hrs by propidium iodide staining based flow cytometry (reference value: 23.35%); format: functional
Mus musculus = species on record: Mus musculus; conditions: CD1, dose 50.0 mg/kg, route po, time 17.0 day
COLO 205 [22] = assay: In vivo inhibition of CDK4/CDK6 in human COLO 205 cells xenografted CD1 nu/nu mouse assessed as reduction in TopoIIalpha expression at 12.5 to 50 mg/kg, po administered via gavage measured after 24 hrs by Western blot analysis; format: functional, organism-based; conditions: dose 12.5-50 mg/kg
[23] = Inhibition of recombinant human full-length N-terminal 6His-tagged/beta-subunit N-terminal GST tagged CK2 expressed in Sf21 insect cells at 200 nM using casein kinase 2 substrate peptide relative to control; conditions: condition cancer
COLO 205 [24] = conditions: Mus musculus, CD1, dose 50.0 mg/kg, route po; remark: listed apart in the source
MV4-11 [25] = assay: Cell cycle arrest in human MV4-11 cells assessed as accumulation of cells at G1-phase at 1.25 uM measured after 24 hrs by propidium iodide staining based flow cytometry (reference value: 61.42%); format: functional
MV4-11 [26] = assay: Cell cycle arrest in human MV4-11 cells assessed as accumulation of cells at G2/M-phase at 0.04 uM measured after 24 hrs by propidium iodide staining based flow cytometry (reference value: 15.23%); format: functional
MV4-11 [27] = assay: Cell cycle arrest in human MV4-11 cells assessed as accumulation of cells at G2/M-phase at 0.08 uM measured after 24 hrs by propidium iodide staining based flow cytometry (reference value: 15.23%); format: functional
[28] = Toxicity in human COLO 205 cells xenografted CD1 nu/nu mouse assessed as change in cecum histology at 50 mg/kg, po administered daily via gavage for 56 days and measured on day 41 to 69 by histopathological analysis; format: organism-based; conditions: in vivo, 1344 h, time 41-69 day
COLO 205 [29] = conditions: Mus musculus, CD1, dose 50.0 mg/kg, route po; remark: listed apart in the source
MV4-11 [30] = assay: Cell cycle arrest in human MV4-11 cells assessed as accumulation of cells at S-phase at 0.16 uM measured after 24 hrs by propidium iodide staining based flow cytometry (reference value: 23.35%); format: functional

Sequence of Receptor-type tyrosine-protein kinase FLT3 (Homo sapiens) (P36888 whole entry): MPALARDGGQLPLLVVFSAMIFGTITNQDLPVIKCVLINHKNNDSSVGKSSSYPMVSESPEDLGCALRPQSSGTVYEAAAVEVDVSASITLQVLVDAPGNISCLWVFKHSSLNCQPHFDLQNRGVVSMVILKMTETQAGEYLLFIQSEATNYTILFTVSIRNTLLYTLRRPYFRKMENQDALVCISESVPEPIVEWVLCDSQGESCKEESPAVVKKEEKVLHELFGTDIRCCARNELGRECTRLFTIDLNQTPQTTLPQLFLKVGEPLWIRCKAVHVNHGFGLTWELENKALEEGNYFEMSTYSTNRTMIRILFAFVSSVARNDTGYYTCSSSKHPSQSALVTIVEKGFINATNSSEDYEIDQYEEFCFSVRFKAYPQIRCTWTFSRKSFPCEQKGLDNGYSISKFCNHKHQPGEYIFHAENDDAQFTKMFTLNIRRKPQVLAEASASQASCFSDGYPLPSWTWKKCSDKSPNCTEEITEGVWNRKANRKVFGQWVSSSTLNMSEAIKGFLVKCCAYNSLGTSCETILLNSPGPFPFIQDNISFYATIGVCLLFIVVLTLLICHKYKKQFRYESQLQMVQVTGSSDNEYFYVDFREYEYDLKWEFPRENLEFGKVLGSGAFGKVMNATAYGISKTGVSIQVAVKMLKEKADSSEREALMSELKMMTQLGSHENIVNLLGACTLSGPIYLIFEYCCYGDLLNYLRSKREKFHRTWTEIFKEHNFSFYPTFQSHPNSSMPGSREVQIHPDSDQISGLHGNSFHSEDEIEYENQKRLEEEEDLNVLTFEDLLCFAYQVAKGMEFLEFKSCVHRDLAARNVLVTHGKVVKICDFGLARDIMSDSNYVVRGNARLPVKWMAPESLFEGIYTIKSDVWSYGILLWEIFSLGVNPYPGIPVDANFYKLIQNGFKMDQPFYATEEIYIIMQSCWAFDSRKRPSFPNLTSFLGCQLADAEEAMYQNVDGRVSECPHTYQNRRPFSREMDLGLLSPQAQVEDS

## CCN1CCN(Cc2ccc(Nc3ncc(F)c(-c4cc(F)c5nc(C)n(C(C)C)c5c4)n3)nc2)CC1 [ABEMACICLIB]
MV4-11 [1]
  Activity: 1.78%
COLO 205 [2]
  inhibition: Active
MDA-MB-468
  Activity: 28.82%
[3]
  Activity: Non-Toxic
MCF-10A
  Activity: Toxic
[4]
  inhibition: > 90%
MDA-MB-231 [5]
  Activity: 86.04%
MDA-MB-231 [6]
  Activity: 78.86%
MDA-MB-231 [7]
  Activity: 8.19%
COLO 205 [8]
  inhibition: inactive
MV4-11 [9]
  Activity: 16.32%
COLO 205 [10]
  inhibition: Dose-Dependent Effect
MV4-11 [11]
  Activity: 94.06%
COLO 205 [12]
  TGI: Active
COLO 205 [13]
  inhibition: Active
MV4-11 [14]
  Activity: 77.47%
[15]
  Activity: Non-Toxic
[16]
  Activity: Non-Toxic
COLO 205 [17]
  inhibition: inactive
MV4-11 [18]
  Activity: 1.84%
COLO 205 [19]
  inhibition: Tde
[20]
  Activity: Non-Toxic
MV4-11 [21]
  Activity: 8.59%
Mus musculus
  inhibition: inactive
COLO 205 [22]
  inhibition: Active
[23]
  inhibition at 0.2 µM: > 90%
COLO 205 [24]
  inhibition: inactive
MV4-11 [25]
  Activity: 93.98%
MV4-11 [26]
  Activity: 6.21%
MV4-11 [27]
  Activity: 1.97%
[28]
  Activity: Non-Toxic
COLO 205 [29]
  inhibition: Active
MV4-11 [30]
  Activity: 4.59%
